“Also recorded” adds a separate entry of the source.

The first assay concerns εRNA. Nature of the assay: RNase protection of end-labeled εRNA (B. Cereus RNase). The assay is classed as binding, Hepatitis B virus. The following applies: compound 0 to 200 μM, 25° C., 30 minutes. The protocol: RNase protection was assessed by incubating an end-labeled RNA with the amount of RNase needed to yield a ladder representing single cut events at each possible cleavage site in the RNA structure (based upon a gel electrophoresis analysis). The presence of a ligand bound to the RNA renders the binding site inaccessible to the RNases and therefore, the binding site will be shown by the disappearance or weakening of specific bands in the digestion pattern (FIGS. 258A and 258B).
Reaction mixtures (10 μl) containing 50 mM Tris-HCl, pH 7.5, 50 mM KCl, 0.5 mg/ml rRNA (as a carrier), 0.5 pmol of 3′-end ^32P-labeled εRNA, 0.05 units of B. Cereus RNase, and compound 5 at concentrations between 0 and 200 μM were incubated at 25° C. for 30 minutes. The reaction products were resolved by gel electrophoresis in polyacrylamide gels. B. Cereus nuclease is a single strand specific RNase. The results are shown in FIG. 258A, wherein the sections of the ladder of digestion products corresponding to cleavage events occurring in the bulge and loop sections of the εRNA structure. […] Conversely, the loop and other regions of the structure where not affected.
With `CCCCN(CCCC)c1nc(NN=Cc2ccc([N+](=O)[O-])cc2)nc(Nc2ccc([N+](=O)[O-])cc2)n1` [Compound 5], the “protection of εRNA from RNase cleavage” value is reported as “protects specific positions of RNA from digestion with RNases; also recorded: decrease in cleavage at specific positions of the bulge”.

The next assay deals with HBV. Nature of the assay: antiviral assay in 2.2.15 cells producing HBV (virion DNA dot blot). The assay is classed as cell-based, Hepatitis B virus. The following applies: drug alone, Example 3; read-out: 90% viral reduction (EC90). An excerpt: Several cell lines and cell culture assays have been developed to identify potential therapeutics effective against chronic HBV infection. One of these cell lines, 2.2.15, has been used in a standardized assay that has repeatedly proven to be an accurate model of chronic cellular HBV replication and a predictive model of antiviral response for chronic hepadnaviral infection in vivo. 2.2.15 cells contain copies of the complete HBV genome integrated into the cell's genome, and 2.2.15 cells are not susceptible to infection by HBV. (Sells, M. A. et al., J. Virol. 62 (8): 2836-2844 (1988)). These cells express HBV genes producing complete HBV particles capable of infecting chimpanzees (Acs, G. et al., Proc. Natl. Acad. Sci. USA 84 (13): 4641-4644 (1987)). Briefly, 2.2.15 cells are cultured and pretreated with a test compound for about 9 days, at which point the media are harvested and subjected to dot-blot hybridization to detect HBV virion DNA.
The antiviral activity of the compounds of the present invention is measured by the methods described in Korba and Gering, Antiviral Res. 19: 55-70 (1992).
This assay format is well suited to the screening of test compounds for potential antiviral activity. The assay provides a threshold assessment of antiviral activity by measuring (i) the levels of HBV virion release from the cells and (ii) cytotoxicity. Two rows of cells were used for each compound, and 4 rows for the assay controls (two for untreated, and two for positive antiviral control, e.g., 3TC). After incubating in the presence of test compound for 9 days, the media were harvested, transferred to 96-well U-bottom plates, and centrifuged. The supernatants were transferred to tubes for dot blot hybridization analysis of HBV virion DNA. The medium was aspirated off of the toxicity plates and discarded. Toxicity plates were then incubated with neutral red dye (MTT can also be used if preferred), washed with DPBS, developed with an acetic acid-ethanol solution, and assayed in a plate reader.
1. 2.2.15 cells were seeded into 96-well, flat bottom tissue culture plates as described above. Duplicate plates were used for the antiviral treatments for each test compound (up to 8 compounds per pair of plates); after three to four days, cells were confluent and medium was yellow in color; the medium was removed and replaced with 100 μl RP2 24 hours before the beginning of drug treatment.
i) For each compound, a total of 4 concentrations were examined; this required 9 sets of 4 sterile, 1.1 ml minitubes (36 tubes per compound). Into the first tube of each set, sufficient compound was aliquoted to make up 700 μl (for 10-fold dilution series) or 980 μl (for 3.3-fold dilution series) of the highest test concentration; the other tubes were left empty.
i) For a 10-fold dilution series: to the first (compound containing) tube was added 700 μl (175 μl×4). 630 μl (210 μl×3) RP2 culture medium was added to the remaining 3 tubes. The first tube was mixed by pipeting up and down with a pipetman (a multichannel pipetman permits the simultaneous processing of multiple compounds). 70 μl of test compound-containing medium were serially transferred from the first tube to the other 3 tubes, taking care to thoroughly mix each tube before transferring medium;
b) 100 μl of each dilution of every compound was added to each of 6 wells (3 wells per plate) using the configuration listed below as an example. The lowest concentration was added first, and the same tips were used to add the higher concentrations. The untreated cells received 100 μl RP2 per well (untreated cells have to be carried on only one pair of the antiviral assay plates).
c) Treatments were repeated daily for 9 days. For the last day of treatment, and additional 200 μl RP2 were added to each well of the antiviral assay plates after the wells are treated with the test compounds (a total of 300 μl medium per well).
6. […]
As usually defined, the EC90 is the concentration at which the effect reaches the 90% level. Turning to `CCCCN(CCCC)c1nc(NN=Cc2ccc([N+](=O)[O-])cc2)nc(Nc2ccc([N+](=O)[O-])cc2)n1` [Compound 5], the EC90 came out at 1.3 µM.

The assay is the same for the next values; noted with them: extra-cellular virus reduced by 50%; 2.2.15 cells, 9 days treatment; read-out: Antiviral EC50.
Broadly, the EC50 is the concentration that produces a half-maximal response. On to `CCCCN(CCCC)c1nc(NN=Cc2ccc([N+](=O)[O-])cc2)nc(Nc2ccc([N+](=O)[O-])cc2)n1` [Compound 5], for which the EC50 turned out to be 0.411 µM.

Turning to `Cc1ccc(Nc2nc(NCc3ccccc3)nc(NN=Cc3cc(Br)cc(Br)c3O)n2)cc1C` [Compound 219], the EC50 is > 100 µM.

As for `Cc1ccc(Nc2nc(NCc3cc(F)ccc3F)nc(Nc3ccc([N+](=O)[O-])cc3)n2)cc1C` [Compound 248], the EC50 is > 100 µM.

For the molecule `O=C(NNc1nc(Nc2ccccc2)nc(Nc2cccc(C(F)(F)F)c2)n1)c1cccc(Br)c1` [Compound 220], the EC50 was > 100 µM.

As for `CCN(CC)c1nc(NN=Cc2c(O)ccc3ccccc23)nc(Nc2ccccc2)n1` [Compound 171], the EC50 came to 5 µM.

As to `CCN(CC)CCNc1ccc2c3c(cccc13)C(=O)N(Nc1nc(NCc3ccccc3)nc(N(CC)CC)n1)C2=O` [Compound 27], the EC50 is > 100 µM.

Turning to `Cc1ccc(Nc2nc(NN=Cc3cc(I)ccc3O)nc(Nc3ccccc3)n2)c(C)c1` [Compound 159], the EC50 was determined as 0.498 µM.

On to `Cc1ccc(Nc2nc(NCc3ccccc3)nc(NN=Cc3ccccc3F)n2)cc1C` [Compound 228], for which the EC50 was > 100 µM.

Take `CNc1nc(NN=Cc2cc(Cl)ccc2O)nc(Nc2ccccc2)n1` [Compound 245]: the EC50 is > 100 µM.

Regarding `CCCCN(CCCC)c1nc(NN=Cc2cccc(Cl)c2)nc(Nc2ccc([N+](=O)[O-])cc2)n1` [Compound 35], the EC50 turned out to be 2.3 µM.

As to `Oc1ccc(I)cc1C=NNc1nc(NCc2ccccc2)nc(Nc2ccccc2)n1` [Compound 33], the EC50 is > 100 µM.

For the molecule `FC(F)(F)c1cccc(Nc2nc(Nc3ccccc3)nc(N3CCOCC3)n2)c1` [Compound 21], the EC50 turned out to be 5.6 µM.

As for `COc1ccccc1C=NNc1nc(NCc2ccccc2)nc(Nc2ccccc2)n1` [Compound 195], the EC50 is > 100 µM.

Turning to `CC(C=NNc1nc(Nc2ccc([N+](=O)[O-])cc2)nc(Nc2ccc(C)c(C)c2)n1)=Cc1ccccc1` [Compound 19], the EC50 was > 100 µM.

As for `Clc1ccc(C=NNc2nc(Nc3ccccc3)nc(N3CCCC3)n2)cc1` [Compound 218], the EC50 was > 100 µM.

In the case of `CCN(CC)c1nc(NN=Cc2ccc([N+](=O)[O-])cc2)nc(Nc2ccccc2)n1` [Compound 13], the EC50 stood at 8.4 µM.

With `O=[N+]([O-])c1ccc(Nc2nc(NN=Cc3ccc(Br)cc3)nc(N3CCCCCC3)n2)cc1` [Compound 117], the EC50 turned out to be 4.2 µM.

Regarding `COc1ccc(Nc2nc(NN=Cc3cc(Br)cc(Br)c3O)nc(N3CCOCC3)n2)cc1` [Compound 200], the concentration for a half-maximal effect (EC50) was > 100 µM.

Turning to `Oc1c(Br)cc(Cl)cc1/C=N/Nc1nc(Nc2cccc(C(F)(F)F)c2)nc(N2CCOCC2)n1` [Compound 34], the EC50 was determined as 66 µM.

Turning to `COc1ccc(Nc2nc(NN=Cc3ccc(OC)cc3OC)nc(Nc3ccccc3)n2)cc1` [Compound 20], the EC50 is 4.1 µM.

Regarding `Cc1cccc(C(=O)Oc2ccc(C=NNc3nc(N4CCCCC4)nc(N4CCCCC4)n3)cc2)c1` [Compound 181], the EC50 is 6 µM.

For `C(=Cc1ccccc1)C=NNc1nc(Nc2ccccc2)nc(N2CCCC2)n1` [Compound 213], the EC50 is > 100 µM.

As for `CC(=NNc1nc(NCc2ccccc2)nc(Nc2ccccc2)n1)c1ccc([N+](=O)[O-])cc1` [Compound 182], the EC50 is 54 µM.

Take `CCCCN(CCCC)c1nc(NN=Cc2ccc3c(c2)OCO3)nc(Nc2ccc([N+](=O)[O-])cc2)n1` [Compound 11]: the EC50 stood at 3.9 µM.

Take `O=C(CSc1nc(SCC(=O)Nc2ccccc2C(F)(F)F)nc(SCC(=O)Nc2ccccc2C(F)(F)F)n1)Nc1ccccc1C(F)(F)F` [Compound 212]: the EC50 was > 100 µM.

Regarding `CN(C)c1nc(NCc2ccccc2)nc(NN=Cc2ccc(Cl)cc2Cl)n1` [Compound 224], the EC50 is > 100 µM.

Values taken from US6335339B1, “Triazine antiviral compounds” (Scriptgen Pharmaceuticals, Inc., priority 1998, dated 2002).
